The results in this text go back to patent publication EP0927178B1, “TRICYCLIC COMPOUNDS USEFUL FOR INHIBITION OF G-PROTEIN FUNCTION AND FOR TREATMENT OF PROLIFERATIVE DISEASES” (SCHERING CORPORATION, priority 1996, dated 1998).

This experiment deals with COS Cell. As to the kind of experiment: COS Cell IC50 (Cell-Based Assay). Particulars: procedure of WO 95/10516. The method, then: FPT IC50 (inhibition of farnesyl protein transferase, in vitro enzyme assay) and COS Cell IC50 (Cell-Based Assay) were determined following the assay procedures described in WO 95/10516, published April 20, 1995. GGPT IC50 (inhibition of geranylgeranyl protein transferase, in vitro enzyme assay), Cell Mat Assay, and anti-tumor activity (in vivo anti-tumor studies) could be determined by the assay procedures described in WO 95/10516. The disclosure of WO 95/10516 is incorporated herein by reference thereto.

For orientation: IC50 means the concentration that gives 50% inhibition. `NC(=O)N1CC[C@@H](CC(=O)N2CCC(C3c4ncc(Br)cc4CCc4cc(Cl)cc(Cl)c43)CC2)C1` (stereo partly drawn) [Example 2, 3(S) -[2-(4-(3-bromo-8,10-dichloro-6-11-dihydro-5-H-benzo[5,6]-cyclohepta[1,2-b]pyridin-11-yl)-1-piperidinyl]-2-oxoethyl]-1-pyrrolidinecarboxamide] came in with a half-inhibitory concentration (IC50) of 30 nM.
